We go through 3 compounds from US20260184702A1, “SYNTHESIS, PHARMACOLOGY AND USE OF NEW WATER-SOLUBLE AND SELECTIVE FMS-LIKE TYROSINE KINASE3 (FLT3) INHIBITORS” (Universität Regensburg, priority 2022, published 2026).

A short description of series [1]: Solubility test by UV-Vis spectroscopy of saturated solutions. Particulars: solvent DMSO. It is filed as physicochemical.
The subject of series [2] is four hematological cell lines. Briefly: CellTiter-Blue Cell Viability Assay, all four hematological cell lines. The note with it: geometric mean over EOL-1, MOLM-13, MONO-MAC-1, MONO-MAC-6; read-out: IC50 [μM] Geomean. It counts as cell-based. The protocol:
(§1) EOL-1 (acute myeloid eosinophilic leukemia), MOLM-13 (acute myeloid leukemia), MONO-MAC-1 (acute monocytic leukemia), and MONO-MVAC-6 (acute monocytic leukemia). In vitro screening was performed by Charles River using the CellTiter-Blue® Cell Viability Assay.
Background: Alamar Blue is a resazurin reagent that responds to reducing activity.

A further series concerns the target T1, human FLT3-ITD (Homo sapiens, UniProt P36888).
T1 sequence (P36888 1-993): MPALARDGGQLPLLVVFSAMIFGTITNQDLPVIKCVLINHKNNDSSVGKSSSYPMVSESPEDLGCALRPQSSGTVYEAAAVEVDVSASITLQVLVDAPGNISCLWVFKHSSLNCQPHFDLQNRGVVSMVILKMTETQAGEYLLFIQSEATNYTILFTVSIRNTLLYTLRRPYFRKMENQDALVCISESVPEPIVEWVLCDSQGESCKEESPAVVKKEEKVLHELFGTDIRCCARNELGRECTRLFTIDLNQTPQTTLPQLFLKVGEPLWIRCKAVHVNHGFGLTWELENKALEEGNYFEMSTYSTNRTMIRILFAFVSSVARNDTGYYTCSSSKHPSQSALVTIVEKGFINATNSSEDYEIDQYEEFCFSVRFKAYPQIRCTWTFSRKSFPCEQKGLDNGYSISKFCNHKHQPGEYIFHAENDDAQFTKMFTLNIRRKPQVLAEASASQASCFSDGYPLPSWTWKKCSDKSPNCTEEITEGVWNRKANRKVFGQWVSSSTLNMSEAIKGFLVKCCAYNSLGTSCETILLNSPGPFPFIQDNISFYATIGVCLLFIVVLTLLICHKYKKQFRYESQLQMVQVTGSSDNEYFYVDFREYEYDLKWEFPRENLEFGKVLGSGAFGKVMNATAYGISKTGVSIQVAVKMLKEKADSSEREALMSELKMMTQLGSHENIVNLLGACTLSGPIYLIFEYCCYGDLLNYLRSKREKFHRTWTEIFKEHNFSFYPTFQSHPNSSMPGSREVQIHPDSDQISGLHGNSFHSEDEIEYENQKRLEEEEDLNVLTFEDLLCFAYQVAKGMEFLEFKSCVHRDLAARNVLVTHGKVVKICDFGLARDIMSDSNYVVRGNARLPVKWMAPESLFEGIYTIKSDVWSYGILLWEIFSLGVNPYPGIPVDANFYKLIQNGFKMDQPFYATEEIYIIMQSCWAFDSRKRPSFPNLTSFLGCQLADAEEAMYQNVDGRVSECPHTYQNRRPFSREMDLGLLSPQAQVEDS
As to the kind of experiment: Cellular FLT3-ITD phosphorylation assay in MEF-FLT3-ITD cells (sandwich-ELISA). It counts as cell-based. The note with it: 90 min compound, FLT3-ligand stimulation, read-out: IC50 FLT3-ITD [nM] in phosphorylation assay. The protocol: In the cellular FLT3-ITD phosphorylation assay the murine embryonal fibroblast cell line (MEF) was used, which expresses a high level of exogenously introduced full-length human FLT3-ITD. Stimulation of these cells with human FLT3-Ligand results in receptor tyrosine autophosphorylation. MEF-FLT3-ITD cells were plated in DMEM supplemented with […] in multiwell cell culture plates. After serum-starvation overnight cells were incubated with compounds (90 min at 37° C.) in serum-free medium. […] For stimulation, cells were treated with 50 ng/ml FLT3-ligand for 5 min at room temperature. After cell lysis quantification of receptor autophosphorylation was assessed in 96 well plates via sandwich-ELISA using a kinase specific capture antibody and an antiphosphotyrosine detection antibody.

The nature of series [3]: Solubility test by UV-Vis spectroscopy of saturated solutions. It counts as physicochemical. Particulars: saturated solution; for Solubility Water: ultrapure water. The protocol: All UV-Vis measurements were carried out with an Agilent Cary 60 UV-Vis 2.00 between 800-200 nm. The absorbance was measured with a scan rate of 300.0 nm/min, a data interval of 0.50 nm and an UV-Vis Average Time of 0.10 s. For all measurements a cuvette with 10 mm light path was used. A calibration curve was plotted from several different concentrations and the solubility of the respective compound was determined by measuring the absorbance of a diluted saturated solution. As a blank curve a mixture of ultrapure water and ethanol in a ratio of 1:1 or 5:95 was recorded. For the calibration curve a 100 μM or a 10 μM solution of the compound in an ultrapure water:ethanol (1:1) or (5:95)-mixture was prepared and diluted to obtain at least 6 concentrations. […] The supernatant was taken using a syringe and filtered through a syringe filter (RC Membrane). The saturated solution was diluted with ultrapure water and ethanol to obtain an appropriate concentration in a water:ethanol (1:1) or (5:95)-mixture. The long wave absorbance maximum was used for determination of the solubility (mean values, determination in triplicate). […] By plotting the concentration of the solution against the absorbance values at the previously determined wavelength maximum a calibration curve was obtained (FIG. 1B).

The target of the next series is T2, c-KIT (Homo sapiens, UniProt P10721).
T2 construct: expresses endogenously a high level of wild-type c-KIT; endogenous in cells; host or cells: Mo7e (human acute megakaryoblastic leukemia)
Briefly: Cellular c-KIT phosphorylation assay in Mo7e cells (sandwich-ELISA). It is filed as cell-based. Particulars: Mo7e cells, 90 min compound, SCF stimulation; read-out: IC50 [nM] inhibition of c-KIT in phosphorylation assay. The protocol: In the cellular c-KIT phosphorylation assay the human acute megakaryoblastic leukemia cell line Mo7e was used, which expresses endogenously a high level of wild-type c-KIT. Stimulation of these cells with human stem cell factor (SCF) results in receptor tyrosine autophosphorylation. Mo7e cells were plated in RPMI supplemented with 20% FCS and 10 ng/ml GM-CSF in multiwell cell culture plates. After serum- and growth factor-starvation overnight cells were incubated with compounds (90 min at 37° C.) in serum-free medium. […] For stimulation, cells were treated with 100 ng/ml SCF for 3 min at room temperature. After cell lysis quantification of receptor autophosphorylation was assessed in 96 well plates via sandwich-ELISA using a kinase specific capture antibody and an anti-phosphotyrosine detection antibody.
(In an ELISA, binding on a coated surface is turned into a signal by an enzyme label.)

The subject of series [4] is EOL-1 (acute myeloid eosinophilic leukemia). Briefly: CellTiter-Blue Cell Viability Assay, EOL-1. It is filed as cell-based. The note with it: Homo sapiens, EOL1. The protocol:
as §1

For series [5], the system named is MOLM-13 (acute myeloid leukemia). Briefly: CellTiter-Blue Cell Viability Assay, MOLM-13. It counts as cell-based. Particulars: Homo sapiens. The protocol: as §1
Series [6] deals with MONO-MAC-6 (acute monocytic leukemia). Briefly: CellTiter-Blue Cell Viability Assay, MONO-MAC-6. It is filed as cell-based. The note with it: Homo sapiens. The protocol:
as §1

Series [7] relates to MONO-MAC-1 (acute monocytic leukemia). Briefly: CellTiter-Blue Cell Viability Assay, MONO-MAC-1. It is filed as cell-based. The protocol: as §1
Series [8] concerns subcutaneous MV4-11 CDX model. As to the kind of experiment: In vivo efficacy study in subcutaneous MV4-11 CDX model in NOD/SCID mice. The note with it: for number of living subjects, day of study 5 / number of living subjects, day of study 6 / number of living subjects, day of study 8 / number of living subjects, day of study 13 / number of living subjects, day of study 26 / number of living subjects, day of study 36: 5 mice.

The nature of series [9]: In vivo MTD study in non-tumor bearing NOD/SCID mice. The protocol:
. Group information and dosing details can be seen in the following Table 7.
. Acclimatization occurred for at least 14 days. […] Dosing of 34c was done as a solution in deionized water, initiated on day 1 and continued for 5 days. One mouse in the 50 mg/kg po group and one in the 75 mg/kg po group lost more weight than 10% in the dosing phase of the study. The weight loss in the 50 mg/kg group was observed after receiving three doses of 34c and after receiving four doses of 34c in the […]. A dosing break was made until the end of dosing for both mice and after a couple of days during the 10-day observation period both mice regained their weight. The body weight was measured daily for all three oral treatment groups for the 5 days of dosing and the following 10-day observational period. The mean relative body weight of the oral treatment group can be seen in FIG. 2. […] Since this observation was made only after dosing, it can be considered it was not caused by the compound.

Each structure is given as a SMILES string. Converted amounts (≈) assume the structure as drawn. “Also recorded” adds a separate entry of the source. Structures can show the parent of a compound that is named as a salt. A value given as a limit tells only on which side of the number the result lay.

T2 sequence (P10721 26-976): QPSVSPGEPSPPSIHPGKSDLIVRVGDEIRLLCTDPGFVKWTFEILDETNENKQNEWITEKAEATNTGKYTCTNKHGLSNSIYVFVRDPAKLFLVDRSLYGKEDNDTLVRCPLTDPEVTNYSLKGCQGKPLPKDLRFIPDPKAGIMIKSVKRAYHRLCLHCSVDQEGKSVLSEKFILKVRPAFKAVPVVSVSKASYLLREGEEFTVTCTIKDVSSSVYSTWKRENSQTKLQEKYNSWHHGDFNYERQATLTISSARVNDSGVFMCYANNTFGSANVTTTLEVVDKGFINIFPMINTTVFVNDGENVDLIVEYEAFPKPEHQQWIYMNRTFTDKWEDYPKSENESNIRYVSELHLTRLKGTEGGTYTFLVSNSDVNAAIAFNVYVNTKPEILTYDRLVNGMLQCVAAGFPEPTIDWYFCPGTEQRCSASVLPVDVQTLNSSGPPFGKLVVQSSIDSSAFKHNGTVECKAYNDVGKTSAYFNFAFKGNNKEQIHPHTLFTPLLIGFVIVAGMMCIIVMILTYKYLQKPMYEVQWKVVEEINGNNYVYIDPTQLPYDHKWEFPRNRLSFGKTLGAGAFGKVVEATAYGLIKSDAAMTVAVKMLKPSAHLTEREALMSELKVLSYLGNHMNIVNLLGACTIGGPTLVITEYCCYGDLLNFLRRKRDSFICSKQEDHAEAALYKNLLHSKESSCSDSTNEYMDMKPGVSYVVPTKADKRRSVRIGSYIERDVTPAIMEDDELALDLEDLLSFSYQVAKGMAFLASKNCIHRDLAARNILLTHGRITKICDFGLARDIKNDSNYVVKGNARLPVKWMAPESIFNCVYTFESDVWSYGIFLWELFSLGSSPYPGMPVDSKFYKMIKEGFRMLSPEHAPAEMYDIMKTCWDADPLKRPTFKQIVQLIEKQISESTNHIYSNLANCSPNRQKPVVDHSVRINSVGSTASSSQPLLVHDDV

The IC50 is the concentration that gives 50% inhibition. Take `CN(C)Cc1c(O)ccc2[nH]c(C(=O)c3cc4cc(NC(=O)Nc5cc(C(C)(C)C)on5)ccc4o3)cc12` [Compound 34b, 1-(5-tert-Butylisoxazol-3-yl)-3-(2-(4-((dimethylamino)methyl)-5-hydroxy-1H-indole-2-carbonyl)benzofuran-5-yl)urea 2,2,2-trifluoroacetate]: the “Solubility DMSO” value in [1] is listed as “Soluble”. In addition, the IC50 in [2] came out at 0.00074 µM; at human FLT3-ITD, 3.1 nM; at c-KIT, 1.8 nM; in [4] it was 0.02 nM; in [5], 0.0002 µM; in [6], 0.00065 µM. Besides, the IC50 in [7] was 0.1 µM. Also, the “Solubility Ethanol” value in series [3] (2,2,2-trifluoroacetate) is 5940 µg/mL (≈ 11.5 mM). In addition, the “Solubility Water” value in [3] (2,2,2-trifluoroacetate) is under 100 µg/mL.

For `CN1CCN(Cc2c(O)ccc3[nH]c(C(=O)c4cc5cc(NC(=O)Nc6cc(C(C)(C)C)on6)ccc5o4)cc23)CC1` [Compound 33b, 1-(5-(tert-Butyl)isoxazol-3-yl)-3-(2-(5-hydroxy-4-((4-methylpiperazin-1-yl)methyl)-1H-indole-2-carbonyl)benzofuran-5-yl)urea bis(2,2,2-trifluoroacetate)], the IC50 in series [2] turned out to be 0.00223 µM; on human FLT3-ITD it was 6.9 nM; at c-KIT it was 3.2 nM; in series [4] it was 0.05 nM; in series [5], 0.00109 µM; in [6], 0.00431 µM. Moreover, in [7], the IC50 came out at 0.1 µM. The “Solubility Ethanol” value in series [3] (bis(2,2,2-trifluoroacetate)) amounted to 3630 µg/mL (≈ 6.36 mM).

For `CN(C)Cc1c(O)ccc2[nH]c(C(=O)c3cc4cc(NC(=O)Nc5cc(C(C)(C)C)on5)ccc4o3)cc12` [Compound 34c, 1-(5-(tert-Butyl)isoxazol-3-yl)-3-(2-(4-(dimethylamino)methyl)-5-hydroxy-1H-indole-2-carbonyl)benzofuran-5-yl)urea Hydrochloride], in series [8] (20 mg/kg po daily 5 days), the “first death (day of study)” value is 9 days; the “number of living subjects, day of study 5” value amounted to 5; the “number of living subjects, day of study 6” value is 5; the “number of living subjects, day of study 8” value was found to be 5. For the same compound, in series [8] (20 mg/kg po daily 5 days), the “number of living subjects, day of study 13” value stood at 4; the “number of living subjects, day of study 26” value amounted to 4; the “number of living subjects, day of study 36” value was 0. The “study day after which 1 mouse had to be sacrificed” value in series [8] (20 mg/kg po daily 5 days (treatment group 2)) was found to be 20 days. Besides, the “relative tumor volume, compared with reference compounds” value in [8] (20 mg/kg po daily 5 days, Midostaurin 50 mg/kg, Hydrochloride) is given as “better results regarding tumor volume measurements than Midostaurin; also recorded: higher efficiency than midostaurin”. In series [8] (50 mg/kg po daily 5 days), the “number of living subjects, day of study 5” value worked out at 5; the “number of living subjects, day of study 6” value was found to be 5; the “number of living subjects, day of study 8” value stood at 5; the “number of living subjects, day of study 13” value turned out to be 5. In series [8] (50 mg/kg po daily 5 days), the “number of living subjects, day of study 26” value is 5 and the “number of living subjects, day of study 36” value came out at 5. Besides, the “deaths until day 36” value in series [8] (50 mg/kg po daily 5 days, Hydrochloride) was “No deaths were observed; also recorded: no deaths were noted”. In addition, in [8] (50 mg/kg po daily 5 days, references 50 mg/kg, Hydrochloride), the “relative tumor volume, compared with reference compounds” value is given as “similarly active as Quizartinib; also recorded: much more active than Midostaurin; also recorded: significantly increased efficiency of 34c compared to midostaurin; also recorded: comparable to the efficiency of quizartinib at the same dose”. Further, in [8] (34c 20 and 50 mg/kg, references 50 mg/kg, po daily 5 days, Hydrochloride), the “efficacy and tolerability in terms of overall survival / death counts” value is “better tolerated; also recorded: significantly better efficacy and tolerability in terms of overall survival than midostaurin; also recorded: significantly better efficiency and tolerability (in terms of overall survival) than quizartinib”. Further, the “relative body weight loss” value in [8] (po daily 5 days, 34c 20 and 50 mg/kg, Midostaurin and Quizartinib 50 mg/kg) is listed as “less relative body weight loss”. The clinical signs result in series [9] (20 mg/kg and 50 mg/kg po treatment groups) was “no clinical signs observed”. The clinical signs entry in series [9] (75 mg/kg po, the mouse which lost weight, noticed only after dosing, considered not caused by the compound) is “swelling of the right hind limb and foot”. Also, in [9] (female, NOD/SCID, mouse, in vivo, po, 5 days), the “possible (tolerated) dose according to tolerability study” value is “up to 75 mg/kg”. For the same compound, the “body weight loss in the dosing phase” value in series [9] (one mouse in the 50 mg/kg po group and one in the 75 mg/kg po group, daily, 5 days) is listed as over 10%. In [3] (Hydrochloride), the “Solubility Ethanol” value was 2380 µg/mL and the “Solubility Water” value was 5770 µg/mL.
